# ChEMBL document CHEMBL5620376, “Design, synthesis and anti-NASH effect evaluation of novel GFT505 derivatives in vitro and in vivo” (Eur J Med Chem, 2023)
# The source made the active and inactive calls. The rule behind the calls is not given here.
# What was measured:
# [1] = test system: HepG2; assay: Anti-NASH activity in free fatty acid-induced nonalcoholic steatohepatitis model in human HepG2 cells assessed as reduction in intracellular lipid accumulation at 40 micromol/L incubated for 24 hrs by Oil Red O/ Hematoxylin staining based analysis; assay type: functional, cell-based; conditions: dose 40.0 µmol/L
# [2] = test system: HepG2; assay: Cytotoxicity against human HepG2 cells assessed as inhibition of cell proliferation at 20 to 80 micromol/L incubated for 24 hrs by MTT assay; assay type: functional, cell-based; conditions: dose 20-80 µmol/L
# [3] = test system: HepG2; assay: Anti-NASH activity in free fatty acid-induced nonalcoholic steatohepatitis model in human HepG2 cells assessed as reduction in intracellular triglyceride level measured per mg of protein at 40 micromol/L incubated for 24 hrs; assay type: functional, cell-based; conditions: dose 40.0 µmol/L
# [4] = test system: Mus musculus; assay: Anti-NASH activity in MCD diet-induced nonalcoholic steatohepatitis C57BL/6 mouse assessed as increase in liver GSH level at 100 mg/kg,po administrated for 28 days; assay type: functional, organism-based; conditions: time 28.0 day
# [5] = test system: HepG2; assay: Anti-NASH activity in free fatty acid-induced nonalcoholic steatohepatitis model in human HepG2 cells assessed as reduction in intracellular lipid accumulation at 100 micromol/L incubated for 24 hrs by Oil Red O/ Hematoxylin staining based analysis; assay type: functional, cell-based; conditions: dose 100.0 µmol/L
# [6] = test system: HepG2; assay: Anti-NASH activity in free fatty acid-induced nonalcoholic steatohepatitis model in human HepG2 cells assessed as reduction in intracellular triglyceride level measured per mg of protein at 100 micromol/L incubated for 24 hrs; assay type: functional; conditions: dose 100 µmol/L
# [7] = Hepatotoxicity in MCD diet-induced C57BL/6 mouse assessed as reduction in liver index at 100 mg/kg,po administrated for 4 weeks by hematoxylin and eosin staining based microscopic analysis; assay type: toxicity, organism-based; conditions: in vivo, 672 h
# [8] = test system: Mus musculus; assay: Anti-NASH activity in MCD diet-induced nonalcoholic steatohepatitis C57BL/6 mouse assessed as decrease in serum IL-6 level at 100 mg/kg,po administrated for 28 days; assay type: functional, organism-based; conditions: time 28.0 day
# [9] = test system: Mus musculus; assay: Anti-NASH activity in MCD diet-induced nonalcoholic steatohepatitis C57BL/6 mouse assessed as reduction in triglyceride level in serum at 100 mg/kg,po administrated for 28 days; assay type: functional, organism-based; conditions: time 28.0 day
# [10] = test system: HepG2; assay: Anti-NASH activity in free fatty acid-induced nonalcoholic steatohepatitis model in human HepG2 cells assessed as reduction in AST activity at 100 micromol/L incubated for 24 hrs; assay type: functional; conditions: dose 100 µmol/L
# [11] = test system: Mus musculus; assay: Anti-NASH activity in MCD diet-induced nonalcoholic steatohepatitis C57BL/6 mouse assessed as decrease in serum TNF-alpha level at 100 mg/kg,po administrated for 28 days; assay type: functional, organism-based; conditions: time 28.0 day
# [12] = test system: Mus musculus; assay: Anti-NASH activity in MCD diet-induced nonalcoholic steatohepatitis C57BL/6 mouse assessed as decrease in serum AST activity at 100 mg/kg,po administrated for 28 days; assay type: functional, organism-based; conditions: time 28.0 day
# [13] = test system: Mus musculus; assay: Anti-NASH activity in MCD diet-induced nonalcoholic steatohepatitis C57BL/6 mouse assessed as decrease in serum ALT activity at 100 mg/kg,po administrated for 28 days; assay type: functional, organism-based; conditions: time 28.0 day
# [14] = test system: Mus musculus; assay: Anti-NASH activity in MCD diet-induced nonalcoholic steatohepatitis C57BL/6 mouse assessed as decrease in serum LDL level at 100 mg/kg,po administrated for 28 days; assay type: functional, organism-based; conditions: time 28.0 day
# [15] = test system: Mus musculus; assay: Anti-NASH activity in MCD diet-induced nonalcoholic steatohepatitis C57BL/6 mouse assessed as increase in serum HDL level at 100 mg/kg,po administrated for 28 days; assay type: functional, organism-based; conditions: time 28.0 day
# [16] = test system: Mus musculus; assay: Anti-NASH activity in MCD diet-induced nonalcoholic steatohepatitis C57BL/6 mouse assessed as reduction in triglyceride level in serum at 3 to 30 mg/kg,po administrated for 28 days; assay type: functional, organism-based; conditions: dose 3-30 mg/kg, time 28.0 day
# [17] = test system: Mus musculus; assay: Anti-NASH activity in MCD diet-induced nonalcoholic steatohepatitis C57BL/6 mouse assessed as increase in liver GSH level at 30 mg/kg,po administrated for 28 days; assay type: functional; conditions: time 28 day
# [18] = test system: Mus musculus; assay: Anti-NASH activity in MCD diet-induced nonalcoholic steatohepatitis C57BL/6 mouse assessed as decrease in serum TNF-alpha level at 3 to 30 mg/kg,po administrated for 28 days; assay type: functional, organism-based; conditions: dose 3-30 mg/kg, time 28.0 day
# [19] = test system: Mus musculus; assay: Anti-NASH activity in MCD diet-induced nonalcoholic steatohepatitis C57BL/6 mouse assessed as decrease in serum LDL level at 3 to 30 mg/kg,po administrated for 28 days; assay type: functional, organism-based; conditions: dose 3-30 mg/kg, time 28.0 day
# [20] = test system: Mus musculus; assay: Anti-NASH activity in MCD diet-induced nonalcoholic steatohepatitis C57BL/6 mouse assessed as reduction in total cholesterol level in serum at 3 to 30 mg/kg,po administrated for 28 days; assay type: functional, organism-based; conditions: dose 3-30 mg/kg, time 28.0 day
# [21] = test system: Mus musculus; assay: Anti-NASH activity in MCD diet-induced nonalcoholic steatohepatitis C57BL/6 mouse assessed as increase in serum HDL level at 3 to 30 mg/kg,po administrated for 28 days; assay type: functional, organism-based; conditions: dose 3-30 mg/kg, time 28.0 day
# [22] = test system: Mus musculus; assay: Anti-NASH activity in MCD diet-induced nonalcoholic steatohepatitis C57BL/6 mouse assessed as increase in liver GSH level at 3 to 30 mg/kg,po administrated for 28 days; assay type: functional, organism-based; conditions: dose 3-30 mg/kg, time 28.0 day
# [23] = test system: Mus musculus; assay: Anti-NASH activity in MCD diet-induced nonalcoholic steatohepatitis C57BL/6 mouse assessed as decrease in serum IL-8 level at 3 to 30 mg/kg,po administrated for 28 days; assay type: functional, organism-based; conditions: dose 3-30 mg/kg, time 28.0 day
# [24] = test system: HepG2; assay: Anti-NASH activity in free fatty acid-induced nonalcoholic steatohepatitis model in human HepG2 cells assessed as reduction in AST activity at 40 micromol/L incubated for 24 hrs; assay type: functional; conditions: dose 40 µmol/L
# [25] = test system: Mus musculus; assay: Anti-NASH activity in MCD diet-induced nonalcoholic steatohepatitis C57BL/6 mouse assessed as decrease in serum ALT activity at 10 mg/kg,po administrated for 28 days; assay type: functional, organism-based; conditions: time 28.0 day
# [26] = test system: Mus musculus; assay: Anti-NASH activity in MCD diet-induced nonalcoholic steatohepatitis C57BL/6 mouse assessed as decrease in serum ALT activity at 30 mg/kg,po administrated for 28 days; assay type: functional, organism-based; conditions: time 28.0 day
# [27] = test system: Mus musculus; assay: Anti-NASH activity in MCD diet-induced nonalcoholic steatohepatitis C57BL/6 mouse assessed as decrease in serum IL-6 level at 3 to 30 mg/kg,po administrated for 28 days; assay type: functional, organism-based; conditions: dose 3-30 mg/kg, time 28.0 day
# [28] = Hepatotoxicity in MCD diet-induced C57BL/6 mouse assessed as reduction in liver index at 3 to 30 mg/kg,po administrated for 4 weeks by hematoxylin and eosin staining based microscopic analysis; assay type: toxicity, organism-based; conditions: in vivo, 672 h, dose 3-30 mg/kg
# [29] = test system: Mus musculus; assay: Anti-NASH activity in MCD diet-induced nonalcoholic steatohepatitis C57BL/6 mouse assessed as decrease in serum AST activity at 3 to 30 mg/kg,po administrated for 28 days; assay type: functional, organism-based; conditions: dose 3-30 mg/kg, time 28.0 day
# [30] = test system: Mus musculus; assay: Anti-NASH activity in MCD diet-induced nonalcoholic steatohepatitis C57BL/6 mouse assessed as reduction in triglyceride level in serum at 30 mg/kg,po administrated for 28 days; assay type: functional; conditions: time 28 day
# [31] = test system: Mus musculus; assay: Anti-NASH activity in MCD diet-induced nonalcoholic steatohepatitis C57BL/6 mouse assessed as reduction in triglyceride level in serum at 3 mg/kg,po administrated for 28 days; assay type: functional, organism-based; conditions: time 28.0 day
# [32] = test system: Mus musculus; assay: Anti-NASH activity in MCD diet-induced nonalcoholic steatohepatitis C57BL/6 mouse assessed as reduction in triglyceride level in serum at 10 mg/kg,po administrated for 28 days; assay type: functional; conditions: time 28 day
# [33] = test system: Mus musculus; assay: Anti-NASH activity in MCD diet-induced nonalcoholic steatohepatitis C57BL/6 mouse assessed as reduction in triglyceride level in serum at 3 mg/kg,po administrated […]; assay type: functional
smiles,measurement,setting,value
CNc1ccc(C(=O)/C=C/c2cc(C)c(OC(C)(C)C(=O)O)c(C)c2)cc1,Activity,[1],inactive
same,Activity,[2],inactive
same,Activity,[3],inactive
Cc1cc(/C=C/C(=O)c2ccc(N(C)Cc3ccccc3)cc2)cc(C)c1OC(C)(C)C(=O)OC(C)(C)C,Activity,[1],Active
same,Activity,[2],inactive
same,Activity,[3],Active
COc1ccc(C(=O)/C=C/c2cc(C)c(OC(C)(C)C(=O)O)c(C)c2)cc1,Activity,[1],Active
same,Activity,[2],Active
same,Activity,[3],Active
Cc1cc(/C=C/C(=O)c2ccc(N(C)Cc3ccccc3)cc2)cc(C)c1OC(C)(C)C(=O)O,Activity,[1],Active
same,Activity,[2],inactive
same,Activity,[3],Active
CC(C)OC(=O)C(C)(C)Oc1ccc(C(=O)c2ccc(Cl)cc2)cc1 [FENOFIBRATE],Activity,[4],Active
same,Activity,[5],Active
same,Activity,[6],0.15 mmol
same,Activity,[7],Toxic
same,Activity,[8],Active
same,Activity,[9],Active
same,Activity,[10],19.78 U/g
same,Activity,[11],Active
same,Activity,[12],Active
same,Activity,[13],Active
same,Activity,[14],Active
same,Activity,[15],Active
C[Se]c1ccc(C(=O)/C=C/c2cc(C)c(OC(C)(C)C(=O)O)c(C)c2)cc1,Activity,[1],Active
same,Activity,[2],Active
same,Activity,[3],Active
CNc1ccc(C(=O)/C=C/c2cc(C)c(OC(C)(C)C(=O)OC(C)(C)C)c(C)c2)cc1,Activity,[16],Active
same,Activity,[17],47.8 µmol/g
same,Activity,[18],Active
same,Activity,[19],Active
same,Activity,[20],Active
same,Activity,[21],Active
same,Activity,[1],Active
same,Activity,[22],Active
same,Activity,[2],inactive
same,Activity,[23],Active
same,Activity,[3],Active
same,Activity,[24],18.65 U/g
same,Activity,[25],Active
same,Activity,[26],Active
same,Activity,[27],Active
same,Activity,[28],Non-Toxic
same,Activity,[29],Active
CSc1ccc(C(=O)/C=C/c2cc(C)c(OC(C)(C)C(=O)OC(C)(C)C)c(C)c2)cc1,Activity,[1],Active
same,Activity,[2],inactive
same,Activity,[3],Active
C[Se]c1ccc(C(=O)/C=C/c2cc(C)c(OC(C)(C)C(=O)OC(C)(C)C)c(C)c2)cc1,Activity,[1],Active
same,Activity,[2],inactive
same,Activity,[3],Active
COc1ccc(C(=O)/C=C/c2cc(C)c(OC(C)(C)C(=O)OC(C)(C)C)c(C)c2)cc1,Activity,[1],Active
same,Activity,[2],inactive
same,Activity,[3],Active
Cc1cc(/C=C/C(=O)c2ccc(N(C)C)cc2)cc(C)c1OC(C)(C)C(=O)O,Activity,[1],Active
same,Activity,[2],inactive
same,Activity,[3],Active
Cc1cc(/C=C/C(=O)c2ccc(N(C)C)cc2)cc(C)c1OC(C)(C)C(=O)OC(C)(C)C,Activity,[1],inactive
same,Activity,[2],inactive
same,Activity,[3],inactive
CSc1ccc(C(=O)/C=C/c2cc(C)c(OC(C)(C)C(=O)O)c(C)c2)cc1 [ELAFIBRANOR],Activity,[18],Active
same,Activity,[30],0.53 mmol/L
same,Activity,[19],Active
same,Activity,[20],Active
same,Activity,[21],Active
same,Activity,[31],inactive
same,Activity,[1],Active
same,Activity,[22],Active
same,Activity,[2],Active
same,Activity,[23],Active
same,Activity,[3],Active
same,Activity,[32],0.69 mmol/L
same,Activity,[33],0.64 mmol/L
same,Activity,[24],18.31 U/g
same,Activity,[25],Active
same,Activity,[26],Active
same,Activity,[27],Active
same,Activity,[28],Toxic
same,Activity,[29],Active
